Read-outs that look alike come from different tables or passages of the source.
What was measured:
[1] = molecular target: T1, mTORC2 (Homo sapiens, UniProt P42345+P62942); experiment: Inhibition assay for mTORC2: phosphorylation of pAkt at Ser473, AlphaLISA in PC3 cells; type: cell-based; settings: for IC50: read-out: pIC50 mTORC2 (converted)
T1 construct: endogenous in cells; host or cells: PC3 cells (human prostate adenocarcinoma)

[2] = molecular target: T2, mTORC1 (Homo sapiens, UniProt P42345+P62942); experiment: Inhibition assay for mTORC1: phosphorylation of pS6K at Thr389, AlphaLISA in PC3 cells; type: cell-based; settings: for IC50: read-out: pIC50 mTORC1 (converted)
T2 construct: endogenous in cells; host or cells: PC3 cells (human prostate adenocarcinoma)

[3] = PC3 cells, treated 24 hours, pAkt Ser473, AlphaLISA, C16 diastereomer mixtures not separated
[4] = PC3 cells, treated 24 hours, pS6K Thr389, AlphaLISA, C16 diastereomer mixtures not separated

T1 sequence (P62942 2-108 limits assumed, other chains not shown): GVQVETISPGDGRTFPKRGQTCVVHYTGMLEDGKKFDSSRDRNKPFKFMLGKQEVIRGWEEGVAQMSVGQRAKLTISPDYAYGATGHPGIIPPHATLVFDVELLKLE

IC50 [1]	IC50 [2]	Structure (SMILES)	also measured
< 1 µM	< 0.000316 µM	COC1C[C@@H]2CC[C@@H](C)[C@@](O)(O2)C(=O)C(=O)N2CCCCC2C(=O)O[C@H]([C@H](C)C[C@@H]2CC[C@@H](OCCN3CCN(C)CC3)[C@H](OC)C2)CC(=O)[C@H](C)/C=C(\C)[C@@H](O)[C@@H](OC)C(=O)[C@H](C)C[C@H](C)/C=C/C=C/C=C/1C (stereo partly drawn) [Compound 320]	
< 1 µM	> 0.00316 µM	COC1C[C@@H]2CC[C@@H](C)[C@@](O)(O2)C(=O)C(=O)N2CCCCC2C(=O)O[C@H]([C@H](C)C[C@@H]2CC[C@@H](OC(=O)NC3C(O)O[C@H](CO)[C@@H](O)[C@@H]3O)[C@H](OC)C2)CC(=O)[C@H](C)/C=C(\C)[C@@H](O)[C@@H](OC)C(=O)[C@H](C)C[C@H](C)/C=C/C=C/C=C/1C (stereo partly drawn) [Compound 361]	
< 1 µM	< 0.000316 µM	COC1C[C@@H]2CC[C@@H](C)[C@@](O)(O2)C(=O)C(=O)N2CCCCC2C(=O)O[C@H]([C@H](C)C[C@@H]2CC[C@@H](OC(=O)N(C)CCO)[C@H](OC)C2)CC(=O)[C@H](C)/C=C(\C)[C@@H](O)[C@@H](OC)C(=O)[C@H](C)C[C@H](C)/C=C/C=C/C=C/1C (stereo partly drawn) [Compound 313]	
< 1 µM	< 0.000316 µM	COC1C[C@@H]2CC[C@@H](C)[C@@](O)(O2)C(=O)C(=O)N2CCCCC2C(=O)O[C@H]([C@H](C)C[C@@H]2CC[C@@H](OC(=O)NCCC3CC3)[C@H](OC)C2)CC(=O)[C@H](C)/C=C(\C)[C@@H](O)[C@@H](OC)C(=O)[C@H](C)C[C@H](C)/C=C/C=C/C=C/1C (stereo partly drawn) [Compound 337]	
< 1 µM	< 0.000316 µM	COC1C[C@@H]2CC[C@@H](C)[C@@](O)(O2)C(=O)C(=O)N2CCCCC2C(=O)O[C@H]([C@H](C)C[C@@H]2CC[C@@H](OC(=O)NCCN3CCOCC3)[C@H](OC)C2)CC(=O)[C@H](C)/C=C(\C)[C@@H](O)[C@@H](OC)C(=O)[C@H](C)C[C@H](C)/C=C/C=C/C=C/1C (stereo partly drawn) [Compound 336]	
< 1 µM	< 0.000316 µM	COC1C[C@@H]2CC[C@@H](C)[C@@](O)(O2)C(=O)C(=O)N2CCCCC2C(=O)O[C@H]([C@H](C)C[C@@H]2CC[C@@H](OC(=O)NCCc3ccccc3)[C@H](OC)C2)CC(=O)[C@H](C)/C=C(\C)[C@@H](O)[C@@H](OC)C(=O)[C@H](C)C[C@H](C)/C=C/C=C/C=C/1C (stereo partly drawn) [Compound 324]	
> 10 µM	0.000316 to 0.00316 µM	CO[C@@H]1C[C@H](C[C@@H](C)[C@@H]2CC(=O)[C@H](C)/C=C(\C)[C@@H](O)[C@@H](OC)C(=O)[C@H](C)C[C@H](C)/C=C/C=C/C=C(\C)C(OCCO)C[C@@H]3CC[C@@H](C)[C@@](O)(O3)C(=O)C(=O)N3CCCCC3C(=O)O2)CC[C@H]1O (stereo partly drawn) [Compound 219, (1R,9S,12S,15R,16E,18R,19R,21R,23S,24E,26E,28E,32S,35R)-1,18-dihydroxy-30-(2-hydroxyethoxy)-12-[(1R)-2-[(1S,3R,4R)-4-hydroxy-3-methoxy-cyclohexyl]-1-methyl-ethyl]-19-methoxy-15,17,21,23,29,35-hexamethyl-11,36-dioxa-4-azatricyclo[30.3.1.0^4,9]hexatriaconta-16,24,26,28-tetraene-2,3,10,14,20-pentone]	
< 1 µM	< 0.000316 µM	COCCO[C@@H]1CC[C@@H](C[C@@H](C)[C@@H]2CC(=O)[C@H](C)/C=C(\C)[C@@H](O)[C@@H](OC)C(=O)[C@H](C)C[C@H](C)/C=C/C=C/C=C(\C)C(OC)C[C@@H]3CC[C@@H](C)[C@@](O)(O3)C(=O)C(=O)N3CCCCC3C(=O)O2)C[C@H]1OC (stereo partly drawn) [Compound 315, (1R,9S,12S,15R,16E,18R,19R,21R,23S,24E,26E,28E,30S,32S,35R)-1,18-dihydroxy-19,30-dimethoxy-12-[(1R)-2-[(1S,3R,4R)-3-methoxy-4-(2-methoxyethoxy)cyclohexyl]-1-methyl-ethyl]-15,17,21,23,29,35-hexamethyl-11,36-dioxa-4-azatricyclo[30.3.1.0^4,9]hexatriaconta-16,24,26,28-tetraene-2,3,10,14,20-pentone]	
< 1 µM	< 0.000316 µM	COC1C[C@@H]2CC[C@@H](C)[C@@](O)(O2)C(=O)C(=O)N2CCCCC2C(=O)O[C@H]([C@H](C)C[C@@H]2CC[C@@H](OCCOCCOCCO)[C@H](OC)C2)CC(=O)[C@H](C)/C=C(\C)[C@@H](O)[C@@H](OC)C(=O)[C@H](C)C[C@H](C)/C=C/C=C/C=C/1C (stereo partly drawn) [Compound 317]	
< 1 µM	< 0.000316 µM	COC1CC2CCC(C)C(O)(O2)C(=O)C(=O)N2CCCCC2C(=O)OC(C(C)CC2CCC(OCCc3ccccc3)C(OC)C2)CC(=O)C(C)C=C(C)C(O)C(OC)C(=O)C(C)CC(C)C=CC=CC=C1C (stereo not drawn) [Compound 348]	
< 1 µM	< 0.000316 µM	COC1C[C@@H]2CC[C@@H](C)[C@@](O)(O2)C(=O)C(=O)N2CCCCC2C(=O)O[C@H]([C@H](C)C[C@@H]2CC[C@@H](OC(=O)N(C)CCN3CCOCC3)[C@H](OC)C2)CC(=O)[C@H](C)/C=C(\C)[C@@H](O)[C@@H](OC)C(=O)[C@H](C)C[C@H](C)/C=C/C=C/C=C/1C (stereo partly drawn) [Compound 356]	

More lines, now with the values behind:

Structure (SMILES)	IC50 [1]	IC50 [2]	also measured
CO[C@H](COC1C[C@@H]2CC[C@@H](C)[C@@](O)(O2)C(=O)C(=O)N2CCCCC2C(=O)O[C@H]([C@H](C)C[C@@H]2CC[C@@H](O)[C@H](OC)C2)CC(=O)[C@H](C)/C=C(\C)[C@@H](O)[C@@H](OC)C(=O)[C@H](C)C[C@H](C)/C=C/C=C/C=C/1C)c1ccccc1 (stereo partly drawn) [Compound 206]	1 to 10 µM	0.000316 to 0.00316 µM	
COCCOC1C[C@@H]2CC[C@@H](C)[C@@](O)(O2)C(=O)C(=O)N2CCCC[C@H]2C(=O)O[C@H]([C@H](C)C[C@@H]2CC[C@@H](OCCN3CC4(COC4)C3)[C@H](OC)C2)CC(=O)[C@H](C)/C=C(\C)[C@@H](O)[C@@H](OC)C(=O)[C@H](C)C[C@H](C)/C=C/C=C/C=C/1C (mixture of isomers) [Compound 44]			IC50 [1, 3]: 1 to 10 µM; IC50 [2, 4]: < 0.000316 µM
CO[C@@H]1C[C@H](C[C@@H](C)[C@@H]2CC(=O)[C@H](C)/C=C(\C)[C@@H](O)[C@@H](OC)C(=O)[C@H](C)C[C@H](C)/C=C/C=C/C=C(\C)C(OCCCO)C[C@@H]3CC[C@@H](C)[C@@](O)(O3)C(=O)C(=O)N3CCCCC3C(=O)O2)CC[C@H]1O (stereo partly drawn) [Compound 210]	< 1 µM	0.000316 to 0.00316 µM	
CO[C@@H]1C[C@H](C[C@@H](C)[C@@H]2CC(=O)[C@H](C)/C=C(\C)[C@@H](O)[C@@H](OC)C(=O)[C@H](C)C[C@H](C)/C=C/C=C/C=C(\C)C(OCCCc3ccccc3)C[C@@H]3CC[C@@H](C)[C@@](O)(O3)C(=O)C(=O)N3CCCCC3C(=O)O2)CC[C@H]1O (stereo partly drawn) [Compound 207]	1 to 10 µM	0.000316 to 0.00316 µM	
COC1CC2CCC(C)C(O)(O2)C(=O)C(=O)N2CCCCC2C(=O)OC(C(C)CC2CCC(O[Si](C)(C)C(C)(C)C)C(OC)C2)CC(=O)C(C)C=C(C)C(O)C(OC)C(=O)C(C)CC(C)C=CC=CC=C1C (stereo not drawn) [Compound 302]	1 to 10 µM	> 0.00316 µM	
COCCOC1CC2CCC(C)C(O)(O2)C(=O)C(=O)N2CCCCC2C(=O)OC(C(C)CC2CCC(OCCCN3CCOCC3C)C(OC)C2)CC(=O)C(C)C=C(C)C(O)C(OC)C(=O)C(C)CC(C)C=CC=CC=C1C (mixture of isomers) [Compound 42]			IC50 [1, 3]: 1 to 10 µM; IC50 [2, 4]: < 0.000316 µM
CO[C@@H]1C[C@H](C[C@@H](C)[C@@H]2CC(=O)[C@H](C)/C=C(\C)[C@@H](O)[C@@H](OC)C(=O)[C@H](C)C[C@H](C)/C=C/C=C/C=C(\C)C(c3ccc(C)s3)C[C@@H]3CC[C@@H](C)[C@@](O)(O3)C(=O)C(=O)N3CCCCC3C(=O)O2)CC[C@H]1O (stereo partly drawn) [Compound 202]	1 to 10 µM	> 0.00316 µM	
COC1C[C@@H]2CC[C@@H](C)[C@@](O)(O2)C(=O)C(=O)N2CCCCC2C(=O)O[C@H]([C@H](C)C[C@@H]2CC[C@@H](OCCO)[C@H](OC)C2)CC(=O)[C@H](C)/C=C(\C)[C@@H](O)[C@@H](OC)C(=O)[C@H](C)C[C@H](C)/C=C/C=C/C=C/1C (stereo partly drawn) [Compound 306]	< 1 µM	< 0.000316 µM	
COCCOC1C[C@@H]2CC[C@@H](C)[C@@](O)(O2)C(=O)C(=O)N2CCCC[C@H]2C(=O)O[C@H]([C@H](C)C[C@@H]2CC[C@@H](OCCCN3CC4(COC4)C3)[C@H](OC)C2)CC(=O)[C@H](C)/C=C(\C)[C@@H](O)[C@@H](OC)C(=O)[C@H](C)C[C@H](C)/C=C/C=C/C=C/1C (mixture of isomers) [Compound 26]			IC50 [1, 3]: > 10 µM; IC50 [2, 4]: < 0.000316 µM
COCCOCCOC1C[C@@H]2CC[C@@H](C)[C@@](O)(O2)C(=O)C(=O)N2CCCCC2C(=O)O[C@H]([C@H](C)C[C@@H]2CC[C@@H](O)[C@H](OC)C2)CC(=O)[C@H](C)/C=C(\C)[C@@H](O)[C@@H](OC)C(=O)[C@H](C)C[C@H](C)/C=C/C=C/C=C/1C (stereo partly drawn) [Compound 227]	> 10 µM	< 0.000316 µM	
CO[C@@H]1C[C@H](C[C@@H](C)[C@@H]2CC(=O)[C@H](C)/C=C(\C)[C@@H](O)[C@@H](OC)C(=O)[C@H](C)C[C@H](C)/C=C/C=C/C=C(\C)C(OC[C@H](O)c3ccccc3)C[C@@H]3CC[C@@H](C)[C@@](O)(O3)C(=O)C(=O)N3CCCCC3C(=O)O2)CC[C@H]1OCCO (stereo partly drawn) [Compound 88]			pIC50 mTORC2 [1, 3]: B (5 to 6 as B); pIC50 mTORC1 [2, 4]: A (pIC50 for mTORC1 of >9.5 as A)
CO[C@@H]1C[C@H](C[C@@H](C)[C@@H]2CC(=O)[C@H](C)/C=C(\C)[C@@H](O)[C@@H](OC)C(=O)[C@H](C)C[C@H](C)/C=C/C=C/C=C(\C)C(O[C@H](CO)c3ccccc3)C[C@@H]3CC[C@@H](C)[C@@](O)(O3)C(=O)C(=O)N3CCCCC3C(=O)O2)CC[C@H]1O (stereo partly drawn) [Compound 204]	< 1 µM	< 0.000316 µM	
CO[C@@H]1C[C@H](C[C@@H](C)[C@@H]2CC(=O)[C@H](C)/C=C(\C)[C@@H](O)[C@@H](OC)C(=O)[C@H](C)C[C@H](C)/C=C/C=C/C=C(\C)C(OCc3ccccc3)C[C@@H]3CC[C@@H](C)[C@@](O)(O3)C(=O)C(=O)N3CCCCC3C(=O)O2)CC[C@H]1O (stereo partly drawn) [Compound 205]	< 1 µM	< 0.000316 µM	

— patent US11702429B2, “mTORC modulators and uses thereof” (Aeovian Pharmaceuticals, Inc., priority 2019, dated 2023)
